Series [1] deals with monocrotaline (MCT) induced pulmonary arterial hypertension in rats. The series can be described thus: Pulmonary artery pressure in monocrotaline treated rats. The class given is in vivo, rat (male Sprague Dawley). As for the experimental part:
Pulmonary Artery Pressure in Monocrotaline Treated Rats
Male Sprague Dawley rats (250-300 g) are treated with monocrotaline 60 mg/kg subcutanously (=day 0). On day 14 after monocrotaline injection treatment the compound/combination to be tested is administered. On day 28 hemodynamic parameters, i.e. right ventricular pressure, systemic blood pressure, heart rate, arterial and venous oxygen saturation are measured and compared with untreated control animals.
The mentioned monocrotaline (MCT) treated rats are randomized to receive example 14 [4-(4-chlorophenylamino)-7-(2-methylaminocarbonyl-4-pyridylmethoxy)furo-[2,3-d]pyridazine] 10 mg/kg or vehicle by gavage once daily after the onset of moderate pulmonary arterial hypertension starting 14 days after the injection of MCT until the final hemodynamic measurement on day 28. In animals with MCT induced pulmonary arterial hypertension treatment with example 14 markedly decreases right ventricular systolic pressure, compared to vehicle treated animals (control: 25±0.56 mmHg; example 14: 42.04±3.21 mmHg vs. placebo: 71.02±5.38 mmHg) (mean±SEM). This effect of example 14 is paralleled by an inhibition of right ventricular hypertrophy (right ventricle/left ventricle+septum ratio control: 0.26±0.01; example 14: 0.32±0.02 vs. placebo: 0.54±0.04).

On to `NC(=O)c1cc(COc2nnc(Nc3ccc(Cl)cc3)c3ccsc23)ccn1`, for which the melting point amounted to 233 °C.

Take `Clc1ccc(Nc2nnc(OCc3ccncc3)c3sccc23)cc1`: the melting point is 203 to 205 °C (dec.).

Turning to `CNC(=O)c1cc(COc2nnc(Nc3ccc(Cl)cc3)c3ccoc23)ccn1` [Example 14, 4-(4-chlorophenylamino)-7-(2-methylaminocarbonyl-4-pyridylmethoxy)furo-[2,3-d]pyridazine], the “right ventricle/left ventricle+septum ratio (right ventricular hypertrophy)” value in series [1] (10 mg/kg by gavage once daily from day 14 to day 28, day 28, control 0.26±0.01, placebo 0.54±0.04) came to 0.32±0.02. For the same molecule, the “right ventricular systolic pressure” value in series [1] (10 mg/kg by gavage once daily from day 14 to day 28, measured day 28, mean±SEM, control 25±0.56, placebo 71.02±5.38) is on record as 42.04±3.21 mmHg.

The values above are taken from patent US8304406B2, “Compounds for treating pulmonary hypertension” (Bayer Intellectual Property GmbH, priority 2006, dated 2012).
